Test results as given in patent publication US7638509B2, “Diene compounds and formulations” (priority 2003, dated 2009).

Legend:
[1] = molecular target: T1, wild-type AR (Homo sapiens, UniProt P10275); assay: Competitive [3H]-R1881 ligand binding assay, extracts of COS-1 transfected with wild-type AR; parameters: expressed in transfected cells; host or cells: COS-1; details: 1 nM [3H]-R1881, unlabeled ligand 1-10,000 nM, relative to DHT
T1 sequence (P10275 1-920): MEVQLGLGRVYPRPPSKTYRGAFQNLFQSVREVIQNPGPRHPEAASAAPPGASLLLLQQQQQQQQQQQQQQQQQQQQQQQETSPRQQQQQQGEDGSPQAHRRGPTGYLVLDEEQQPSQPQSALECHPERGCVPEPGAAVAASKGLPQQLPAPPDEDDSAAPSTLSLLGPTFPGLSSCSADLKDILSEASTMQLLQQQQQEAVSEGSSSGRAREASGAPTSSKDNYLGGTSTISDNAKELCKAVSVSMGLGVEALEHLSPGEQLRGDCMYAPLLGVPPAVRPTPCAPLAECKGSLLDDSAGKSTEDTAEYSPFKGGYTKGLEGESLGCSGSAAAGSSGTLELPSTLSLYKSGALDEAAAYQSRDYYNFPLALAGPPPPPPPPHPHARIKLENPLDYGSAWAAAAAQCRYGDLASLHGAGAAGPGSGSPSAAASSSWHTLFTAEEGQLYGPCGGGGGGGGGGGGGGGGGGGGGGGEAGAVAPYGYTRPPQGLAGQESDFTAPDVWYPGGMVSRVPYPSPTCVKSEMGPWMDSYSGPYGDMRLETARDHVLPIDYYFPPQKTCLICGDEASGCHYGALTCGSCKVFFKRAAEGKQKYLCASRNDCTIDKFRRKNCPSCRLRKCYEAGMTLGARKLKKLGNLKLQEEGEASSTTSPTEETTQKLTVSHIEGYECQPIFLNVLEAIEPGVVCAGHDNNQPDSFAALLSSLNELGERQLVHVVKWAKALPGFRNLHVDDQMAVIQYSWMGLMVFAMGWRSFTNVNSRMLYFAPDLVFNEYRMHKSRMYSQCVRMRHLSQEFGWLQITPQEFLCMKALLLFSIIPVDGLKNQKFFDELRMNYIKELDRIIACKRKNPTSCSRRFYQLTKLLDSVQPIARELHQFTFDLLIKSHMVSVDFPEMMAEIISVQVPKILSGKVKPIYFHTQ
Method: Ligand Binding Assay. Whole cell extracts from COS-1 with transient transfection of pSG5-AR, or LNCaP without transfection, were incubated for 2 h at 37° C. with 1 nM [^3H]-synthetic androgen methyltrienolone (R1881) in the presence and absence of increasing concentrations (1-10,000 nM) of unlabeled ligands. Then, hydroxyapatite (Bio-Rad) was added and stirred for 15 min at 4° C. After centrifugation and washing, radioactivity was determined by scintillation counting.
Clinically available antiandrogens have an affinity for the AR, allowing a competition with androgens for binding. To determine whether ADEK has this common feature of AR antagonists, the competitive androgen binding assay was performed.

[2] = molecular target: T2, AR with coactivator ARA70 (Homo sapiens, UniProt P10275); assay: ARA70 enhancement of AR transactivation, MMTV-Luc in DU145 cells with pSG5-AR and pSG5-ARA70; type: cell-based; details: DU145, pSG5-AR + MMTV-Luc with or without pSG5-ARA70
T2 construct: expressed in transfected cells; host or cells: DU145
T2 sequence (P10275 1-920): T1 sequence (P10275 1-920)
Method: Cell Culture, Transfection, and Reporter Gene Assay. The human prostate cancer cell lines, LNCaP, PC-3, and DU145, and non-prostate cancer cell line COS-1 were maintained in RPMI or Dulbecco's modified Eagle's medium (DMEM) (Life Technologies) supplemented with 10% fetal bovine serum (FBS). Transfections and luciferase (Luc) assays were performed as previously described (Miyamoto, H., Yeh, S., Wilding, G. & Chang, C. (1998) Proc. Natl. Acad. Sci. USA 95, 7379-7384; Miyamoto, H., Rahman, M., Takatera, H., Kang, H.-Y., Yeh, S., Chang, H.-C., Nishimura, K., Fujimoto, N. & Chang, C. (2002) J. Biol. Chem. 277, 4609-4617). Briefly, cells seeded to reach a density of 50-60% confluence in 12 well tissue culture plates were transfected with 1.5 μg of DNA according to “SuperFect transfection” instructions (Qiagen). After 2-3 h incubation, cells were treated with medium supplemented with charcoal-stripped FBS containing either ethanol or ligands for 24 h. The cells were then harvested and whole cell extracts were used for Luc assay. The Luc activity was determined using a Dual-Luciferase Reporter Assay System (Promega) and luminometer.
The effects of ADEK on the DHT-induced transcriptional activity of AR was examined in COS-1 or LNCaP cells transfected with MMTV-Luc. The pSG5-AR was co-transfected in COS-1 cells. […] Values were obtained from the mean±SD of at least three determinations. […]

`CC(=O)O[C@H]1C=C[C@@]2(C)C(=CC[C@@H]3[C@@H]2CC[C@@]2(C)[C@H]3CCC23OCCO3)C1` [ADEK, 3β-acetoxy-17,17-ethylenedioxyandrosta-1,5-diene] was tested, and the “RBA in COS-1 with AR” value [1] was 6.0 and the “enhancement of AR transactivation by ARA70 in the presence of compound” value [2] was < 2 fold.
